The experiment has as its target T1, GRK2 (Homo sapiens, UniProt P25098).
T1 sequence (P25098 1-689): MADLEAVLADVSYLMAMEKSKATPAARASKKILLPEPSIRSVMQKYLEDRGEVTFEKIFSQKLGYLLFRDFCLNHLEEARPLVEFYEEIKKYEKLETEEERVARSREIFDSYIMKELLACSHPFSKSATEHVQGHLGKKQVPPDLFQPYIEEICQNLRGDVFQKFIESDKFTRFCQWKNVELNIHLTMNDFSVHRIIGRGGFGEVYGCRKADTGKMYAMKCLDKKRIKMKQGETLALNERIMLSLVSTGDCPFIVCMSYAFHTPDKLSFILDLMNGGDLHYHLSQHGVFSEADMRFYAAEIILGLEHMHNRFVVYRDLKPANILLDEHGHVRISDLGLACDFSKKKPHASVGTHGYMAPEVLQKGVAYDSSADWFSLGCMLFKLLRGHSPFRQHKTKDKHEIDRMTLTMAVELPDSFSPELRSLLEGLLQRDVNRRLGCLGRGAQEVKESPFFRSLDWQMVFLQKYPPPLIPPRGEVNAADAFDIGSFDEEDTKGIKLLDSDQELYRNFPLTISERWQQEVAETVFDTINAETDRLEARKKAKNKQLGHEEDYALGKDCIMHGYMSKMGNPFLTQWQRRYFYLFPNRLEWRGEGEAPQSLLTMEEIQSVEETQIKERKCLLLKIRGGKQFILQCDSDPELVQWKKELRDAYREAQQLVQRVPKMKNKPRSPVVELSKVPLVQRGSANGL
Put plainly: hGRK2 LANCE Ultra In Vitro Assay. It counts as biochemical. Particulars: Biological Example 1 GRK2 Lancer IC50 (μM), 10 nM GRK2; 30 or 600 μM ATP (not stated which); multiple measurements listed individually. Here is the method: hGRK2 LANCE Ultra In Vitro Assay
G-protein coupled receptor kinases (GR Kinases) desensitize activated G-protein coupled receptors (GPCRs), by phosphorylation of cytoplasmic loops or carboxyl-terminal tails of GPCRs. GRK2 is one of the 6 different GR kinases and is implicated in heart failure and diabetes.
This assay is sensitive and requires as low as 10 nM enzyme, in a total volume of 10 μL. In addition, the ATP concentration can be varied over a broad range, without interfering with the assay or changing the assay condition. […] Testing inhibitors routinely at both high and low ATP concentrations also enables identification of potential non-ATP competitive inhibitors.
Paroxetine was used as the reference compound in this assay.
Test compounds were dissolved in DMSO at 1 mM and were 3-fold serial diluted. The compound DMSO solutions were then added (100 nL) into a plate well using an acoustic dispenser. To each well was then added 20 nM GRK2 (5 μL) in assay buffer (20 mM HEPES, pH 7.5, 10 mM MgCl2, 0.001% Tween-20®). The plate was sealed and centrifuged at 1000 rpm for 1 min. The plate and wells containing a mixture of GRK2 and test compound were incubated at ambient temperature for 30 min (prior to initializing the enzymatic reaction).
Enzyme reactions were initiated by the addition of 4.9 μL Substrates/Eu-Ab mix to each well. […] Final concentrations of reagents in the assays were as follows: 20 mM HEPES, pH 7.5; 10 mM MgCl2; 0.001% Tween-20® (w/v); 30 or 600 μM ATP; 200 nM ULight-peptide; 4 nM Eu-Ab; 10 nM GRK2; and 1% DMSO.
The plates were sealed and centrifuged at 1000 rpm for 1 min. For reactions at low ATP concentration (30 μM), reaction mixtures were incubated at ambient temperature for 120 min. For reactions at high ATP concentration (600 μM), reaction mixtures were incubated at ambient temperature for 60 min.
The enzyme reactions were quenched by addition of 10 μL of 12 mM EDTA in 1× LANCE detection solution to each well. The plates were then incubated at ambient temperature for 30 min. Time-resolved fluorescence signal of reactions were read on an EnVision or PHERAstar plate reader with the following parameters: Excitation wavelength=337 nm; emission wavelength (donor)=620 nm; emission wavelength (acceptor)=665 nm.
The raw HTRF data were converted to % active as follows:
% active=(sample−NC)/(PC−NC)*100
where NC is the mean of negative control (reactions without GRK2), and PC is the mean of positive control (reactions with GRK2 but without inhibitor). IC50 values were determined from a 4-parameter fit, using the following equation:
Y=Bottom+(Top−Bottom)/(1+10^((Log IC50−X)*Hill slope))
where X=log10 of the compound concentration.
(In general: TR-FRET usually uses a lanthanide donor and a delayed reading to cut background.)

In turn, `COc1cccc(C(CO)N2Cc3c(cc(-c4cn[nH]c4)cc3-c3cncnc3)C2=O)c1` (stereo not shown) [Compound 158, 2-(2-hydroxy-1-(3-methoxyphenyl)ethyl)-6-(1H-pyrazol-4-yl)-4-(pyrimidin-5-yl)isoindolin-1-one] showed an IC50 of 0.027 µM.
Then `COc1cccc(CN2C(=O)c3cc(-c4cn[nH]c4)ccc3C23CCC(O)C3)c1` (stereo not shown) [Compound 46, 3-hydroxy-2′-(3-methoxybenzyl)-5′-(1H-pyrazol-4-yl)spiro[cyclopentane-1,1′-isoindolin]-3′-one], with 0.007 µM; and `O=C1c2cc(-c3cn[nH]c3)ccc2CN1Cc1cccc(OCc2nn[nH]n2)c1` [Compound 88, 2-(3-((2H-Tetrazol-5-yl)methoxy)benzyl)-6-(1H-pyrazol-4-yl)isoindolin-1-one], with 0.029 µM; and `CNC(=O)c1nccc(-c2ccc3c(c2)C(=O)N(Cc2ccc(OC)cc2)C3)n1` [Compound 47, 4-(2-(4-methoxybenzyl)-3-oxoisoindolin-5-yl)-N-methylpyrimidine-2-carboxamide], with approximately 10 µM.
The figure for `Cc1cnccc1CNC(=O)c1cccc(CN2C(=O)c3cc(-c4cn[nH]c4)ccc3C23CCCC3)c1` [Compound 134, N-((3-methylpyridin-4-yl)methyl)-3-((3′-oxo-5′-(1H-pyrazol-4-yl)spiro[cyclopentane-1,1′-isoindolin]-2′-yl)methyl)benzamide] is 0.003 µM; for `COc1cccc(CN2C(=O)c3cc(-c4cn[nH]c4)ccc3C23CCOC3)c1` (stereo not shown) [Compound 75, 2′-(3-methoxybenzyl)-5′-(1H-pyrazol-4-yl)-4,5-dihydro-2H-spiro[furan-3,1′-isoindolin]-3′-one] it is 0.007 µM; for `COc1cccc(C(CO)N2Cc3ccc(-c4cccnc4)cc3C2=O)c1` (stereo not shown) [Compound 83, 2-(2-hydroxy-1-(3-methoxyphenyl)ethyl)-6-(pyridin-3-yl)isoindolin-1-one] it is 0.024 µM.
Then `CCOc1cccc([C@@H](C)N2Cc3ccc(-c4ncccn4)cc3C2=O)c1` [Compound 171], with 0.104 µM; and `COc1cccc(C(C(=O)O)N2Cc3ccc(-c4cn[nH]c4)cc3C2=O)c1` (stereo not shown) [Compound 71], with 0.815 µM.
`CCOc1cccc([C@@H](C)N2Cc3ccc(-c4cn[nH]c4)cc3C2=O)c1` [Compound 29, 2-[(1R)-1-(3-ethoxyphenyl)ethyl]-6-(1H-pyrazol-4-yl)isoindolin-1-one] displayed an IC50 of 0.006 µM.
Consider `C[C@H](c1cccc(C(=O)Nc2ccc(F)c(F)c2)c1)N1Cc2ccc(-c3cn[nH]c3)cc2C1=O` [Compound 32], for which it took 0.261 µM to reach half-maximal inhibition (IC50).
Then `COc1cccc(C(CO)N2Cc3ccc(-c4cn[nH]c4)cc3C2=O)c1` (racemic) [Compound 38, 2-(2-hydroxy-1-(3-methoxyphenyl)ethyl)-6-(1H-pyrazol-4-yl)isoindolin-1-one], with 0.006 µM; and `O=C1c2cc(-c3cn[nH]c3)ccc2CN1Cc1cccc(OC2CCOC2)c1` (stereo not shown) [Compound 90], with 0.137 µM.
The figure for `O=C(O)COc1cccc(CN2Cc3ccc(-c4ccnc5[nH]ccc45)cc3C2=O)c1` [Compound 57] is 2.56 µM; for `COc1cccc(C(Cc2nnn[nH]2)N2Cc3ccc(-c4cn[nH]c4)cc3C2=O)c1` (stereo not shown) [Compound 84] it is 0.167 µM; for `CCOc1cccc([C@H](CO)N2Cc3ccc(-c4cn[nH]c4)cc3C2=O)c1` [Compound 112] it is 0.306 µM.
The figure for `COc1cccc([C@@H](C)N2Cc3c(cc(-c4cn[nH]c4)cc3-c3cccc(O)c3)C2=O)c1` [Compound 139, (R)-4-(3-hydroxyphenyl)-2-(1-(3-methoxyphenyl)ethyl)-6-(1H-pyrazol-4-yl)isoindolin-1-one] is 0.033 µM; for `COc1cccc(CN2C(=O)c3cc(-c4cn[nH]c4)ccc3C23CCC(C(=O)O)C3)c1` (stereo not shown) [Compound 107, 2′-(3-methoxybenzyl)-3′-oxo-5′-(1H-pyrazol-4-yl)spiro[cyclopentane-1,1′-isoindoline]-3-carboxylic acid] it is 0.005 µM; for `COc1cccc(C(C(=O)N(C)C)N2Cc3ccc(-c4cn[nH]c4)cc3C2=O)c1` (stereo not shown) [Compound 168] it is 0.146 µM.

The IC50 is the concentration needed to halve the response being measured.

These data come from patent publication US20220009906A1, “ISOINDOLIN-1-ONE DERIVATIVES USEFUL AS GRK2 INHIBITORS” (priority 2020, published 2022).
